Results taken from patent publication US20250154198A1, “PEPTIDE INHIBITORS OF INTERLEUKIN-23 RECEPTOR” (Zealand Pharma A/S, priority 2021, published 2025).
*1 amine or outer side, *2 acyl side, *3 side chain or, on linkers, in order; H or OH if unused. Where a SMILES comes first, the peptide text is derived from it. Bridges are numbered along the chain shown (N, C = ends). [ ]: non-standard residue; d: D form. NHCH2(1,3-C6H4)CH2CO = O=C(Cc1cccc(CN[*:1])c1)[*:2]; αMeAla(3-pyridyl) = C[C@](N)(Cc1cccnc1)C(=O)O; Phe(3,4-Me2) = Cc1ccc(C[C@H](N)C(=O)O)cc1C; Bip = N[C@@H](Cc1ccc(-c2ccccc2)cc1)C(=O)O; 2Nal = N[C@@H](Cc1ccc2ccccc2c1)C(=O)O; AEF = NCCOc1ccc(C[C@H](N)C(=O)O)cc1; NMeR = CN[C@@H](CCCNC(=N)N)C(=O)O; X1 = O=C(Cc1ccc(CN[*:1])cc1)[*:2]; 3Pal = N[C@@H](Cc1cccnc1)C(=O)O; αMeL = CC(C)C[C@](C)(N)C(=O)O; CH2COCH2 = O=C(C[*:1])C[*:2]; αMeV = CC(C)[C@](C)(N)C(=O)O; 3Amb = NCc1cccc(C(=O)O)c1; Dab = NCC[C@H](N)C(=O)O

Columns and labels:
[1] = Peptide stability in simulated intestinal fluid (SIF); assay type: in vitro ADME; conditions: Table 3-2, porcine pancreatin, pH 6.8, 37° C., 10 μM; for remaining at 1 h, 10 μM / remaining at 4 h, 10 μM: pig, simulated intestinal fluid (SIF) with porcine pancreatin; for remaining at 1 h, 10 μM: read-out: SIF (% remaining 1 h); for remaining at 4 h, 10 μM: read-out: SIF (% remaining 4 h)
Method: Determination of Peptide Stability in Simulated Gastric Fluid (SGF) and Simulated Intestinal Fluid (SIF)
SGF was prepared by dissolving sodium chloride (0.2 g) in 50 mL of water. A volume of 0.7 mL of 10 M HCl was added to adjust the pH of the solution to 1.2 and the volume made up to 100 mL with water. […] SIF was prepared by dissolving monobasic potassium phosphate (0.68 g) in 50 mL of water and adjusting the pH to 6.8 with 1 M NaOH. The volume was subsequently made up to 100 mL with water. 200 mg porcine pancreatin (P1625, Sigma Aldrich) was gently dissolved into 20 mL preheated (37° C.) solution (10 g/L) immediately prior to the incubation.
The incubation was performed at 37° C. with gentle shaking. […] After the last timepoint, the sampling plate was mixed for 10 min on a shaking table and centrifuged 10 min at 2200 g. 70 μL resulting supernatant was diluted with 150 μL water, mixed and centrifugated before analysis by liquid chromatography high resolution mass spectrometry. […] Percent remaining at each timepoint was calculated relative to timepoint zero based on absolute peak areas.

[2] = target: T1, human IL-23R (Homo sapiens, UniProt Q5VWK5); experiment: Binding assay (NanoBRET displacement of fluorophore-labelled reference compound) for estimating binding affinity to human IL-23R; conditions: Table 3-1; read-out: Ki hIL-23R
T1 construct: UniProtKB—Q5VWK5, amino acids 22-629; secretion signal of the plasmid (Promega N1371); expressed in transfected cells
T1 sequence (Q5VWK5 22-629): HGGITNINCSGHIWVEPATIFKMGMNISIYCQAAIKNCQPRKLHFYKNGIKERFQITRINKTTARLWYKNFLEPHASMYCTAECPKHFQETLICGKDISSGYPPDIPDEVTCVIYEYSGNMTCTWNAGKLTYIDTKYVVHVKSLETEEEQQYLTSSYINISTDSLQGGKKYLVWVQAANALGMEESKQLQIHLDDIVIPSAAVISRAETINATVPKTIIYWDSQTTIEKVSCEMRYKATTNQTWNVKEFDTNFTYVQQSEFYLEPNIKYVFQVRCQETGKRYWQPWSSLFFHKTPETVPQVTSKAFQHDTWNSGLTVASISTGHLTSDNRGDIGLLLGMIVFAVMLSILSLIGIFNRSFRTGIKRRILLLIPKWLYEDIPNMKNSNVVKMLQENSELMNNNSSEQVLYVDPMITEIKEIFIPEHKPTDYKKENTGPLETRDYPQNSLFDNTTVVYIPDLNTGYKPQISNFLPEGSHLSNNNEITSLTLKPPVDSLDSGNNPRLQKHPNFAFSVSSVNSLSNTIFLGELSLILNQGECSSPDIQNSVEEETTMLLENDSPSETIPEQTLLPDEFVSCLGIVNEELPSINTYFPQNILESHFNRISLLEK

CC(C)C[C@@H]1NC(=O)[C@H](Cc2c[nH]c3ccccc23)NC(=O)[C@H](Cc2c[nH]c3ccccc23)NC(=O)[C@@H]2CSCC(=O)CSC[C@H](NC(=O)[C@H]([C@@H](C)O)NC(=O)[C@@H](NC(=O)CN)CSCC(=O)CSC[C@@H](C(=O)N[C@@H](CO)C(N)=O)NC1=O)C(=O)N[C@@H](Cc1c[nH]c3ccccc13)C(=O)N[C@@H](CCC(=O)O)C(=O)N2 (single isomer, unassigned) [I1 (isomer 3), H-GC(1a)TC(2a)WEC(2a)WWLC(1a)S-[NH2], reference compound]
SIF (% remaining 4 h) [1]: 0%

CC(C)C[C@@H]1NC(=O)[C@H](Cc2c[nH]c3ccccc23)NC(=O)[C@H](Cc2c[nH]c3ccccc23)NC(=O)[C@@H]2CSCC(=O)CSC[C@H](NC(=O)[C@H](CO)NC(=O)[C@@H](NC(=O)[C@@H](N)CC(=O)O)CSCC(=O)CSC[C@@H](C(=O)N[C@@H](CCCNC(=N)N)C(N)=O)NC1=O)C(=O)N[C@@H](Cc1c[nH]c3ccccc13)C(=O)N[C@@H](CCC(N)=O)C(=O)N2 (single isomer, unassigned) [I3 (isomer 3), H-DC(1a)SC(2a)WQC(2a)WWLC(1a)R-[NH2], reference compound]
SIF (% remaining 4 h) [1]: 0%

CSCC[C@H](NC(=O)[C@@H]1CSCC(=O)CSC[C@H](NC(=O)[C@@H](N)CCC(=O)O)C(=O)N[C@@H](Cc2c[nH]c3ccccc23)C(=O)N[C@@H](CC(C)C)C(=O)N[C@H]2CSCC(=O)CSC[C@H](NC(=O)[C@H](CC(N)=O)NC(=O)[C@H](CCCNC(=N)N)NC(=O)[C@H](Cc3ccc(O)cc3)NC(=O)[C@H](Cc3ccc(O)cc3)NC2=O)C(=O)N[C@@H](CC(N)=O)C(=O)N1)C(N)=O (single isomer, unassigned) [I4 (isomer 3), H-EC(4a)WLC(5a)YYRNC(5a)NC(4a)M-[NH2], reference compound]
SIF (% remaining 4 h) [1]: 0%

CC(C)C[C@]1(C)NC(=O)[C@H](Cc2ccc3ccccc3c2)NC(=O)[C@H](Cc2c[nH]c3ccccc23)NC(=O)[C@@H]2CSCC(=O)CSC[C@H](NC(=O)[C@H](CO)NC(=O)c3cccc(c3)CNC(=O)CC[C@@H](C(=O)N[C@@H](CCCNC(=N)N)C(N)=O)NC1=O)C(=O)N[C@@H](Cc1c[nH]c3ccccc13)C(=O)N[C@@H](CCC(N)=O)C(=O)N2 [Compound 40, [(3-Aminomethyl)benzoyl](1c)*SC(2a)WQC(2a)W[2-Nal][2-Me-Leu]E(1c)R-[NH2]] ([3Amb]SCWQCW[2Nal][αMeL]ER-NH2; linker 3-6 via CH2COCH2; lactam N-10)
remaining at 1 h, 10 μM [1]: 70%

CC(C)C[C@]1(C)NC(=O)[C@H](Cc2ccc3ccccc3c2)NC(=O)[C@H](Cc2ccc(OCCN)cc2)NC(=O)[C@@H]2CSCC(=O)CSC[C@H](NC(=O)[C@H](CO)NC(=O)c3cccc(c3)CNC(=O)CC[C@@H](C(=O)N(C)[C@@H](CCCNC(=N)N)C(N)=O)NC1=O)C(=O)N[C@@H](Cc1c[nH]c3ccccc13)C(=O)N[C@@H](CCC(N)=O)C(=O)N2 [Compound 43, [(3-Aminomethyl)benzoyl](1c)*SC(2a)WQC(2a)[Y(2-aminoethoxy)][2-Nal][2-Me-Leu]E(1c)[N-Me-Arg]-[NH2]] ([3Amb]SCWQC[AEF][2Nal][αMeL]E[NMeR]-NH2; linker 3-6 via CH2COCH2; lactam N-10)
remaining at 4 h, 10 μM [1]: 33%

CC(=O)N[C@H]1CCCCNC(=O)CC[C@@H](C(=O)N[C@@H](CCCNC(=N)N)C(N)=O)NC(=O)[C@](C)(CC(C)C)NC(=O)[C@H](Cc2ccc3ccccc3c2)NC(=O)[C@H](Cc2ccc(OCCN)cc2)NC(=O)[C@@H]2CSCC(=O)CSC[C@H](NC(=O)[C@H](CO)NC1=O)C(=O)N[C@@H](Cc1c[nH]c3ccccc13)C(=O)N[C@@H](CCC(N)=O)C(=O)N2 [Compound 47, [Ac]-K(1c)SC(2a)WQC(2a)[Y(2-aminoethoxy)][2-Nal][2-Me-Leu]E(1c)R-[NH2]] (Ac-KSCWQC[AEF][2Nal][αMeL]ER-NH2; lactam 1-10; linker 3-6 via CH2COCH2)
remaining at 1 h, 10 μM [1]: 2% | remaining at 4 h, 10 μM [1]: 0%

CC(C)C[C@]1(C)NC(=O)[C@H](Cc2ccc3ccccc3c2)NC(=O)[C@H](Cc2ccc(OCCN)cc2)NC(=O)[C@@H]2CSCC(=O)CSC[C@H](NC(=O)[C@H](CO)NC(=O)Cc3cccc(c3)CNC(=O)CC[C@@H](C(=O)N[C@H](CCCNC(=N)N)C(N)=O)NC1=O)C(=O)N[C@@H](Cc1c[nH]c3ccccc13)C(=O)N[C@@H](CCC(N)=O)C(=O)N2 [Compound 92, [3-Aminomethyl-phenylacetyl](1c)*SC(2a)WQC(2a)[Y(2-aminoethoxy)][2-Nal][2-Me-Leu]E(1c)[{d}R]-[NH2]] ([NHCH2(1,3-C6H4)CH2CO]SCWQC[AEF][2Nal][αMeL]E[dR]-NH2; linker 3-6 via CH2COCH2; lactam N-10)
remaining at 4 h, 10 μM [1]: 102%

CC[C@H](C)[C@@H]1NC(=O)Cc2ccc(cc2)CNC(=O)CC[C@@H](C(=O)N[C@@H](CCN)C(=O)N[C@@H](Cc2cccnc2)C(N)=O)NC(=O)[C@](C)(C(C)C)NC(=O)[C@H](Cc2ccc3ccccc3c2)NC(=O)[C@H](Cc2ccc(OCCN)cc2)NC(=O)[C@@H]2CCNC(=O)CC[C@H](NC1=O)C(=O)N[C@@H](Cc1c[nH]c3ccccc13)C(=O)N[C@@H](CCC(N)=O)C(=O)N2 [Compound 157, [4-Aminomethyl-phenylacetyl](1c)*IE(2c)WQ[Dab](2c)[Y(2-aminoethoxy)][2-Nal][2-Me-Val]E(1c)[Dab][3-(3-Pyridyl)-Ala]-[NH2]] ([X1]IEWQ[Dab][AEF][2Nal][αMeV]E[Dab][3Pal]-NH2; lactam 3-6, N-10)
Ki [2]: 0.0117 nM

CC[C@H](C)[C@@H]1NC(=O)Cc2ccc(cc2)CNC(=O)CC[C@@H](C(=O)NCC(=O)N[C@@H](Cc2cccnc2)C(N)=O)NC(=O)[C@](C)(C(C)C)NC(=O)[C@H](Cc2ccc(C)c(C)c2)NC(=O)[C@H](Cc2ccc(OCCN)cc2)NC(=O)[C@@H]2CCNC(=O)CC[C@H](NC1=O)C(=O)N[C@@H](Cc1c[nH]c3ccccc13)C(=O)N[C@@H](CCC(N)=O)C(=O)N2 [Compound 158, [4-Aminomethyl-phenylacetyl](1c)*IE(2c)WQ[Dab](2c)[Y(2-aminoethoxy)][F(3,4-Me)][2-Me-Val]E(1c)G[3-(3-Pyridyl)-Ala]-[NH2]] ([X1]IEWQ[Dab][AEF][Phe(3,4-Me2)][αMeV]EG[3Pal]-NH2; lactam 3-6, N-10)
Ki [2]: 0.0272 nM

CC[C@H](C)[C@@H]1NC(=O)Cc2ccc(cc2)CNC(=O)CC[C@@H](C(=O)N[C@@H](CCN)C(=O)N[C@@](C)(Cc2cccnc2)C(N)=O)NC(=O)[C@](C)(C(C)C)NC(=O)[C@H](Cc2ccc(C)c(C)c2)NC(=O)[C@H](Cc2ccc(OC)cc2)NC(=O)[C@@H]2CCNC(=O)CC[C@H](NC1=O)C(=O)N[C@@H](Cc1c[nH]c3ccccc13)C(=O)N[C@@H](CCC(N)=O)C(=O)N2 [Compound 166, [4-Aminomethyl-phenylacetyl](1c)*IE(2c)WQ[Dab](2c)[Y(Me)][F(3,4-Me)][2-Me-Val]E(1c)[Dab][2-Me-3-(3-Pyridyl)-Ala]-[NH2]] ([X1]IEWQ[Dab]Y(Me)[Phe(3,4-Me2)][αMeV]E[Dab][αMeAla(3-pyridyl)]-NH2; lactam 3-6, N-10)
remaining at 4 h, 10 μM [1]: 86%

CC[C@H](C)[C@@H]1NC(=O)Cc2ccc(cc2)CNC(=O)CC[C@@H](C(=O)N[C@@H](CCN)C(=O)N[C@@](C)(Cc2cccnc2)C(N)=O)NC(=O)[C@](C)(C(C)C)NC(=O)[C@H](Cc2ccc(C)c(C)c2)NC(=O)[C@H](Cc2ccc(-c3ccccc3)cc2)NC(=O)[C@@H]2CCNC(=O)CC[C@H](NC1=O)C(=O)N[C@@H](Cc1c[nH]c3ccccc13)C(=O)N[C@@H](CCC(N)=O)C(=O)N2 [Compound 168, [4-Aminomethyl-phenylacetyl](1c)*IE(2c)WQ[Dab](2c)[Bip][F(3,4-Me)][2-Me-Val]E(1c)[Dab][2-Me-3-(3-Pyridyl)-Ala]-[NH2]] ([X1]IEWQ[Dab][Bip][Phe(3,4-Me2)][αMeV]E[Dab][αMeAla(3-pyridyl)]-NH2; lactam 3-6, N-10)
remaining at 4 h, 10 μM [1]: 104%
